Data from the supplement of paper PMC10307832.

Experiments:
Test in all cases: relative viability (nuclei count vs DMSO), 5 days (fraction); higher = more cells survive
[1] = compound: C1=CC=C(C(=C1)C2=CC=C(C=C2)C3=CSC4=C3C(=C(C(=O)N4)C#N)O)O + CC1(C)CCC(c2ccc(Cl)cc2)=C(CN2CCN(c3ccc(C(=O)NS(=O)(=O)c4ccc(N[C@H](CCN5CCOCC5)CSc5ccccc5)c(S(=O)(=O)C(F)(F)F)c4)cc3)CC2)C1 [Navitoclax] (partner 0.5 µM)
Summary of the method: (§1)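 One day after seeding in 1536-well plates, lung cancer cell lines were dosed by pin tool. Dosing was either single-drug or a fixed anchor-drug dose plus five library-drug doses (not always all listed) in √10 steps. After 5 days, nuclei were stained in one fix-and-stain step and counted on 4× images, and relative viability is the nuclei count of treated wells over that of vehicle wells, given as the median of duplicate plates.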

[2] = compound: C1=CC=C(C(=C1)C2=CC=C(C=C2)C3=CSC4=C3C(=C(C(=O)N4)C#N)O)O + N=C(N)NC(=N)NCCc1ccccc1 [Phenformin] (partner 250 µM)
Summary of the method: as §1

TGX 221 + Trametinib = compound: CC1=CN2C(=O)C=C(N=C2C(=C1)C(C)NC3=CC=CC=C3)N4CCOCC4 [TGX 221] + CC(=O)Nc1cccc(-n2c(=O)n(C3CC3)c(=O)c3c(Nc4ccc(I)cc4F)n(C)c(=O)c(C)c32)c1 [Trametinib] (partner 0.02 µM)
Summary of the method: as §1

TGX 221 + Luminespib = compound: CC1=CN2C(=O)C=C(N=C2C(=C1)C(C)NC3=CC=CC=C3)N4CCOCC4 [TGX 221] + CCNC(=O)c1noc(-c2cc(C(C)C)c(O)cc2O)c1-c1ccc(CN2CCOCC2)cc1 [Luminespib] (partner 0.01 µM)
Summary of the method: as §1

Cell Line	relative viability ([1]; first compound 0.08 µM)	relative viability ([1]; first compound 0.253 µM)	relative viability ([1]; first compound 0.8 µM)	relative viability ([1]; first compound 2.53 µM)	relative viability ([1]; first compound 8 µM)	relative viability ([2]; first compound 0.08 µM)	relative viability ([2]; first compound 0.253 µM)	relative viability ([2]; first compound 0.8 µM)	relative viability ([2]; first compound 2.53 µM)	relative viability ([2]; first compound 8 µM)	relative viability (TGX 221 + Trametinib; first compound 0.08 µM)	relative viability (TGX 221 + Trametinib; first compound 0.253 µM)	relative viability (TGX 221 + Trametinib; first compound 0.8 µM)	relative viability (TGX 221 + Trametinib; first compound 2.53 µM)	relative viability (TGX 221 + Trametinib; first compound 8 µM)	relative viability (TGX 221 + Luminespib; first compound 0.08 µM)	relative viability (TGX 221 + Luminespib; first compound 0.253 µM)	relative viability (TGX 221 + Luminespib; first compound 0.8 µM)	relative viability (TGX 221 + Luminespib; first compound 2.53 µM)	relative viability (TGX 221 + Luminespib; first compound 8 µM)
NCI-H1993	0.951	0.925	1.05	0.781	0.879	0.49	0.424	0.55	0.473	0.529	0.797	0.508	0.526	0.507	0.529	0.781	0.711	0.724	0.869	0.805
NCI-H2009	1.06	1.08	1.21	1.17	1.09	0.443	0.505	0.457	0.496	0.387	0.25	0.196	0.204	0.152	0.173	1.05	1.02	1.09	1.02	0.665
NCI-H2023	0.891	0.89	0.953	1.03	1.16	0.342	0.351	0.429	0.466	0.37	0.55	0.397	0.603	0.469	0.35	0.711	0.555	0.685	0.603	0.386
NCI-H2085	1.12	1.31	1.06	1.25	1.01	0.765	0.951	0.665	0.685	0.568	0.505	0.351	0.374	0.286	0.276	0.518	0.361	0.335	0.223	0.319
NCI-H2087	1.02	1.05	1.1	1.15	0.994	0.441	0.481	0.464	0.366	0.362	0.168	0.155	0.211	0.207	0.217	0.118	0.16	0.151	0.15	0.166
NCI-H2126	0.866	0.924	0.798	0.884	0.951	0.504	0.575	0.471	0.527	0.621	0.535	0.441	0.568	0.547	0.56	0.909	0.832	0.842	0.764	0.808
